# Reference: ChEMBL document CHEMBL5653631, “A Potent and Selective ULK1 Inhibitor Suppresses Autophagy and Sensitizes Cancer Cells to Nutrient Stress” (iScience, 2018)
# Experiments:
# [1] = target: MAP/microtubule affinity-regulating kinase 3 (Homo sapiens) (UniProt P27448); assay: Inhibition of human recombinant MARK3 at 500 nM in presence of ATP by radiometric assay relative to control
# [2] = target: T1, Serine/threonine-protein kinase tousled-like 1 (Homo sapiens) (UniProt Q9UKI8); assay: Inhibition of human recombinant TLK1 at 500 nM in presence of ATP by radiometric assay relative to control
# T1 sequence (whole entry): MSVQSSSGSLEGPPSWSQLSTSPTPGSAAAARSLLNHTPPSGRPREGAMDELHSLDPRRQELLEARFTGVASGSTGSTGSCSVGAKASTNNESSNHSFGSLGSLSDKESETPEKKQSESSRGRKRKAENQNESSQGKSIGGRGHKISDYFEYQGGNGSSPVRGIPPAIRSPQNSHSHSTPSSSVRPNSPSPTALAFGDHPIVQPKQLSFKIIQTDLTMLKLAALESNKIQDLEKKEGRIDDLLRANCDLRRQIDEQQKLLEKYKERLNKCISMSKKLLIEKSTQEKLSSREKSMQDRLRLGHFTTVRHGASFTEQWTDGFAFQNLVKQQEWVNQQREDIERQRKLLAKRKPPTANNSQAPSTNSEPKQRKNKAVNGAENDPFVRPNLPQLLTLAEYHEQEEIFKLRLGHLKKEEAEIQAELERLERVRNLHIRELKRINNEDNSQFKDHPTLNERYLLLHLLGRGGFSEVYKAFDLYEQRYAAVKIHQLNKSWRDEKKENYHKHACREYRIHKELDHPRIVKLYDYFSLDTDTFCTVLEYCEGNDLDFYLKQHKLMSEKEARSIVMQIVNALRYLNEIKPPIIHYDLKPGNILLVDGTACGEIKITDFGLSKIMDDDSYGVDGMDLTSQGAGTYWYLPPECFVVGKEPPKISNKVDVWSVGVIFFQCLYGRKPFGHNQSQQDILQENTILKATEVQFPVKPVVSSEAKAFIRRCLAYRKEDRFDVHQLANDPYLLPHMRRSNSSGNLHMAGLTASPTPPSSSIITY
# [3] = target: T2, Eukaryotic translation initiation factor 2-alpha kinase 3 (Homo sapiens) (UniProt Q9NZJ5); assay: Inhibition of human recombinant PEK at 500 nM in presence of ATP by radiometric assay relative to control
# T2 sequence (whole entry): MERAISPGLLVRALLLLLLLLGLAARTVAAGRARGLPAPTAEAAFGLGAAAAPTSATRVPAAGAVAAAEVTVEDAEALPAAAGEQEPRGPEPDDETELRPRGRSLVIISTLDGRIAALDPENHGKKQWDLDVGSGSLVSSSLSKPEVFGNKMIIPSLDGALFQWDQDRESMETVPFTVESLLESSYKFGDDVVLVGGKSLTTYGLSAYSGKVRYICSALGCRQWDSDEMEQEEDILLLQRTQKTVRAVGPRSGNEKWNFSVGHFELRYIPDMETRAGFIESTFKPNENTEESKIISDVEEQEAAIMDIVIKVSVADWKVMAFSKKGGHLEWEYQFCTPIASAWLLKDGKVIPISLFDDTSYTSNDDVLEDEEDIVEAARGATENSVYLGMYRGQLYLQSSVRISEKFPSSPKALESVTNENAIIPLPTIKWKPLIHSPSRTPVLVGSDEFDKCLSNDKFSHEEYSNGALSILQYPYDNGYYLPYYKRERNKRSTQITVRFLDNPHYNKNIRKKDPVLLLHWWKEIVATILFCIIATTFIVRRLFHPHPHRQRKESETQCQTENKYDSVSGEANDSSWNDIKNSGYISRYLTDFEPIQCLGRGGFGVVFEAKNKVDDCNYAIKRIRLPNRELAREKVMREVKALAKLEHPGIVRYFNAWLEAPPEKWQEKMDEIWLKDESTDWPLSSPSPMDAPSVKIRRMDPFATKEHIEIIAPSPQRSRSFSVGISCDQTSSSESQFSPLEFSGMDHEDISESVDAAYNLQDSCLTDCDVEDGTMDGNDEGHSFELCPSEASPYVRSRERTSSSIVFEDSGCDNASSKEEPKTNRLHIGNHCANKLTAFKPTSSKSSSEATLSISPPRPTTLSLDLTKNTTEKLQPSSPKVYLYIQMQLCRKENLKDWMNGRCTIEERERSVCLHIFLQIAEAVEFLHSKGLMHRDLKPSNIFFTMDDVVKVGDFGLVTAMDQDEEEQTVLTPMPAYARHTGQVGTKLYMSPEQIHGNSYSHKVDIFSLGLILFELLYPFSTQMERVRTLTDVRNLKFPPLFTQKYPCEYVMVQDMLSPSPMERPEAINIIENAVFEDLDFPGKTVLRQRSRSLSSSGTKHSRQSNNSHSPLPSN
# [4] = target: Mitogen-activated protein kinase 8 (Homo sapiens) (UniProt P45983); assay: Inhibition of human recombinant JNK1 at 15 nM related to control ULK1
# [5] = target: T3, Serine/threonine-protein kinase D3 (Homo sapiens) (UniProt O94806); assay: Inhibition of human recombinant PKD3 at 15 nM related to control ULK1
# T3 sequence (whole entry): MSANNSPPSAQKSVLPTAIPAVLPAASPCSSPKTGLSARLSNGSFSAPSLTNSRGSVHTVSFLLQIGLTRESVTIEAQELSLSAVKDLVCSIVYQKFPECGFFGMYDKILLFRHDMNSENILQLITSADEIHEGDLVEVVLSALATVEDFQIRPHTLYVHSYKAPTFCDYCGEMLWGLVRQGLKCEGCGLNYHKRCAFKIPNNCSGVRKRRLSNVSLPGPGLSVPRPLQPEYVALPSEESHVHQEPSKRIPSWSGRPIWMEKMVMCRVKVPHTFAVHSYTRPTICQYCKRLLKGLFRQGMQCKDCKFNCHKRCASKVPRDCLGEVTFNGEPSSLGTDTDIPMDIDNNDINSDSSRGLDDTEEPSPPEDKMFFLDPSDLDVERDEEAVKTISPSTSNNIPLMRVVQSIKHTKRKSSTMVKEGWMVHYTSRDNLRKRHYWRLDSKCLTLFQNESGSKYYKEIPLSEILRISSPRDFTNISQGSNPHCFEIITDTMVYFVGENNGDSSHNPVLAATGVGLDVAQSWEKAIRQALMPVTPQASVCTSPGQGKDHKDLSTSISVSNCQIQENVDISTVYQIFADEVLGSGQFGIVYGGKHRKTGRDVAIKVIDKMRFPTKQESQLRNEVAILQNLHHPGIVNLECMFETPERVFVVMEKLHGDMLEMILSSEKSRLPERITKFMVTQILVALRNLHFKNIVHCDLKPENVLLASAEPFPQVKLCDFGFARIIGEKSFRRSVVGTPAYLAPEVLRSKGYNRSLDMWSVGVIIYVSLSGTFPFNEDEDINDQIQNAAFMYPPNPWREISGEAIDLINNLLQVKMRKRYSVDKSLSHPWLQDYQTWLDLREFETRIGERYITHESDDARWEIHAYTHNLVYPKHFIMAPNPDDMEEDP
# [6] = target: SRSF protein kinase 2 (Homo sapiens) (UniProt P78362); assay: Inhibition of human recombinant SRPK2 at 40 nM related to control ULK1
# SRSF protein kinase 2 (Homo sapiens), sequence (P78362 whole entry, looked up): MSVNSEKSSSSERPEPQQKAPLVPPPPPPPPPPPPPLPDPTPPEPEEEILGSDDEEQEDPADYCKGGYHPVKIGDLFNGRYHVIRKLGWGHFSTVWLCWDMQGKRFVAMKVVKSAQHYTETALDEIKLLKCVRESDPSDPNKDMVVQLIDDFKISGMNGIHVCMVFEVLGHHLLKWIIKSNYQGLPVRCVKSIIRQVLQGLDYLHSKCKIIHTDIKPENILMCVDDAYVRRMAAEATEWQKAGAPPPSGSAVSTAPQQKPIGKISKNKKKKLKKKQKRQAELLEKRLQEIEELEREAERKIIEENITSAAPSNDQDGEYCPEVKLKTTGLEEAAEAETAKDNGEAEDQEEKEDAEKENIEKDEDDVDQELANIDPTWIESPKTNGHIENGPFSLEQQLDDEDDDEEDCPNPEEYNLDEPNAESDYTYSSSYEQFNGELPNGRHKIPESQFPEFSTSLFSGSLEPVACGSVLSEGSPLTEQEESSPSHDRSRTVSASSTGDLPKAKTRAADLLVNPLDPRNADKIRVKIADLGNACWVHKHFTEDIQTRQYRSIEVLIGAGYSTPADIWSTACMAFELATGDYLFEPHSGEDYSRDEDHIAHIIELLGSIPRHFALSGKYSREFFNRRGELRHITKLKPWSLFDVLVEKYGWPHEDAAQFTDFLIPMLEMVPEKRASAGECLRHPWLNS
# MAP/microtubule affinity-regulating kinase 3 (Homo sapiens), sequence (P27448 whole entry, looked up): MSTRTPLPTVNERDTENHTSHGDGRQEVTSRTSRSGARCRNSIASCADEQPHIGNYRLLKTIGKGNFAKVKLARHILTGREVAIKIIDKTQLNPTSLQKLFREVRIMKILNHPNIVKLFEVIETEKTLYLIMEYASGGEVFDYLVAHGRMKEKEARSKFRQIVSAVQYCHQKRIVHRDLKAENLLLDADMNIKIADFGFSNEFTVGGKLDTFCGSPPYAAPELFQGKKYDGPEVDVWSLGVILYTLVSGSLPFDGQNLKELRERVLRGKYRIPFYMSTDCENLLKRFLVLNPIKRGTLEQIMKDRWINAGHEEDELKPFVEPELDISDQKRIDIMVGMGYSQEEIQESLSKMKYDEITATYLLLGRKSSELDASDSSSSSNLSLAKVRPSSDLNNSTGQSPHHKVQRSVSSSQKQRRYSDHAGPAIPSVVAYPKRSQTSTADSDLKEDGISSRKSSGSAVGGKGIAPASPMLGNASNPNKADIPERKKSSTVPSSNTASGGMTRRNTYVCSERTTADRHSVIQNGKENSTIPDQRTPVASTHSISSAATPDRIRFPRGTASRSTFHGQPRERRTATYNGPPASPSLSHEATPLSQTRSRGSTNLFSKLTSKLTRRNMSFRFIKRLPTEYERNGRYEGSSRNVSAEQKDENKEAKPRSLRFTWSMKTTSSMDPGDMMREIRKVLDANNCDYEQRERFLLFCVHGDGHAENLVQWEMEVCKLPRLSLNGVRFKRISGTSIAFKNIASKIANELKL
# Mitogen-activated protein kinase 8 (Homo sapiens), sequence (P45983 whole entry): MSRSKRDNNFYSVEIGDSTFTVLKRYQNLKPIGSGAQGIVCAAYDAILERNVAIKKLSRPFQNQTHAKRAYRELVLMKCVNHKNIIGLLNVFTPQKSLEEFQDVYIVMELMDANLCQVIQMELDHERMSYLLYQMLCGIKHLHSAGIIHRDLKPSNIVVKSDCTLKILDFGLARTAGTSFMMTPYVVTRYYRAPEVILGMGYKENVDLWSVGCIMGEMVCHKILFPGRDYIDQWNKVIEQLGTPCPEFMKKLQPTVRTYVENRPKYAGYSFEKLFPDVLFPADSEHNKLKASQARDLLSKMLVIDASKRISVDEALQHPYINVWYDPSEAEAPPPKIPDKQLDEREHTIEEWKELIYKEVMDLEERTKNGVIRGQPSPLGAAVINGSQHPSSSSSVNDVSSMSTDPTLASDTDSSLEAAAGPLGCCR
smiles,measurement,setting,value
CNC(=O)c1ccccc1Oc1nc(Nc2cc(OC)c(OC)c(OC)c2)ncc1Br,inhibition,[1],45%
same,inhibition,[2],0%
same,inhibition,[3],0%
CC(C)[C@H](NC(=O)c1cc(-c2cnn3cc(-c4ccc(OCCN5CCCCC5)cc4)cnc23)cs1)C(F)(F)F,fold change (FC),[4],0.09
same,fold change (FC),[5],0.08
O=C(N[C@@H](C1CC1)C(F)(F)F)c1cc(-c2cnn3cc(-c4ccc(F)cc4)cnc23)cs1,fold change (FC),[6],0.01
